We go through nine compounds from patent publication US6846821B2, “Tetrahydrothiopy ranphthalazinone derivatives as PDE4 inhibitors” (Altana Pharma, AG, priority 1999, dated 2005).

Series [1] deals with PDE4. Kind of series: Inhibition of PDE4 activity (method of Bauer and Schwabe, microtitre plates). It is filed as biochemical. The note with it: measured as −logIC50 (mol/l). Here is the method: The activity test was carried out according to the method of Bauer and Schwabe, which was adapted to microtitre plates (Naunyn-Schmiederberg's Arch. Pharmacol. 311, 193-198, 1980). In this test, the PDE reaction is carried out in the first step. In a second step, the resultant 5′-nucleotide is cleaved to the uncharged nucleoside by a snake venom 5′-nucleotidase from Crotalus Atrox. In the third step, the necleoside is separated from the remaining charged substrate on ion exchange columns. The columns are eluted directly into minivials using 2 ml of 30 mM ammonium formate (pH 6.0), to which a further 2 ml of scintillation fluid is added for counting.
The inhibitory values determined for the compounds according to the invention follow from the following table A which the numbers of the compounds correspond to the numbers of the examples.

As to `COc1ccc(C2=NN(C3CCSCC3)C(=O)[C@H]3CC=CC[C@@H]23)c2c1OC(C)(C)C2` (relative stereo) [compound 1, (cis)-4-(2,3-Dihydro-2,2-dimethyl-7-methoxybenzofuran-4-yl)-2-(tetrahydrothiopyran-4-yl)-4a,5,8,8a-tetrahydro-2H-phthalazin-1-one], the melting point fell in the range of 163 to 164 °C. Moreover, the “Inhibition of PDE4 activity, −logIC50” value in series [1] is given as 9.34 mol/l.

`COc1ccc(C2=NN(C3CCSCC3)C(=O)[C@H]3CC=CC[C@@H]23)cc1Cl` (relative stereo) [compound 4, (cis)-4-(3-Chloro-4-methoxyphenyl)-2-(tetrahydrothiopyran-4-yl)-4a,5,8,8a-tetrahydro-2H-phthalazin-1-one] returned a melting point of 170 to 171 °C. The compound `COc1ccc(C2=NN(C3CCS(=O)(=O)CC3)C(=O)C3CC=CCC23)cc1OC` (stereo not drawn) [compound 2, (cis)-4-(3,4-Dimethoxyphenyl)-2-(1,1-dioxohexahydro-1l^6-thiopyran-4-yl)-4a,5,8,8a-tetrahydro-2H-phthalazin-1-one] had a melting point of 196 to 198 °C. In series [1], the “Inhibition of PDE4 activity, −logIC50” value is 8.45 mol/l. Consider `COc1ccc(C2=NN(C3CC[S+]([O-])CC3)C(=O)C3CC=CCC23)cc1OC` (stereo not drawn) [compound 3, (cis)-4-(3,4-Dimethoxyphenyl)-2-(1-oxo-hexahydro-1l^4-thiopyran-4-yl)-4a,5,8,8a-tetrahydro-2H-phthalazin-1-one], for which the “Inhibition of PDE4 activity, −logIC50” value in series [1] was determined as 8.51 mol/l. Compound `COc1ccc(C2=NN(C3CC[S+]([O-])CC3)C(=O)C3CC=CCC23)cc1Cl` (stereo not drawn) [compound 5, (cis)-4-(3-Chloro4-methoxyphenyl)-2-(1-oxo-hexahydro-1l^4-thiopyran-4-yl)-4a,5,8,8a-tetrahydro-2H-phthalazin-1-one] had a melting point of 197 to 199 °C. Moreover, in series [1], the “Inhibition of PDE4 activity, −logIC50” value is listed as 8.20 mol/l.

For the compound `CCOc1ccc(C2=NN(C3CCS(=O)(=O)CC3)C(=O)C3CC=CCC23)cc1OCC` (stereo not drawn) [compound 6, (cis)-4-(3,4-Diethoxyphenyl)-2-(1,1-dioxohexahydro-1l^6-thiopyran-4-yl)-4a,5,8,8a-tetrahydro-2H-phthalazin-1-one], the “Inhibition of PDE4 activity, −logIC50” value in series [1] was 8.02 mol/l. `COc1ccc(C2=NN(C3CCS(=O)(=O)CC3)C(=O)C3CC=CCC23)c2c1OC(C)(C)C2` (stereo not drawn) [compound 7, (cis)-4-(2,3-Dihydro-2,2-dimethyl-7-methoxybenzofuran-4-yl)-2-(1,1-dioxohexahydro-1l^6-thiopyran4-yl)-4a,5,8,8a-tetrahydro-2H-phthalazin-1-one] registered a melting point of 261 to 263 °C. Further, the “Inhibition of PDE4 activity, −logIC50” value in series [1] is recorded as 9.00 mol/l. Regarding `COc1ccc(C2=NN(C3CCS(=O)(=O)CC3)C(=O)C3CC=CCC23)cc1OC` [compound 9, (4aS,8aR)-(cis)-4-(3,4-Dimethoxyphenyl)-2-(1,1-dioxohexahydro-1l^6-thiopyran-4-yl)-4a,5,8,8a-tetrahydro-2H-phthalazin-1-one], the melting point was 203 to 204 °C. Moreover, the “Inhibition of PDE4 activity, −logIC50” value in series [1] amounted to 9.20 mol/l. Consider `COc1ccc(C2=NN(C3CCS(=O)(=O)CC3)C(=O)C3CC=CCC23)cc1OC1CCCC1` (stereo not drawn) [compound 10, (cis)-4-(3-Cyclopentyloxy-4-methoxyphenyl)-2-(1,1,-dioxohexahydro-1l^6-thiopyran-4-yl)-4a,5,8,8a-tetrahydro-2H-phthalazin-1-one], for which the “Inhibition of PDE4 activity, −logIC50” value in series [1] amounted to 9.43 mol/l.
